# Test system: aerobic micro-organism activity
# Assay: Example 4: aerobic stability of forage (temperature rise in insulated boxes)
# Method: The treatments shown in examples 1 and 2 were also evaluated for their aerobic stability i.e. under conditions representing opening of the clamp to use the forage as feed thus allowing air to enter the clamp. In this case comparisons were made with untreated forage as in examples 1 and 2 and also with forage treated with a typical acid product, formic acid (85% w/w) applied at 2.5 liters per tonne of grass. 750 g of the forages were stored in insulated boxes placed in a controlled environment at 20-22° C. A temperature probe was inserted into each box linked to a data logger to monitor temperature changes hourly over a 6 day period.
smiles,measurement,setting,value
"O=CO [Formic Acid, formic acid]",Temperature Day 0,"750 g forage in insulated boxes at 20-22° C., Day 0",17.8 °C
same,Temperature Day 6,"750 g forage in insulated boxes at 20-22° C., Day 6",20.5 °C
same,Temperature increase,Day 0 to Day 6,+2.7 °C

# — US8357413B2, “Process for the disinfection and/or preservation of harvested plant material” (Solvay (Societe Anonyme), priority 2003, dated 2013)
